For experiment [1], the target named is T1, EphB2-His-Fc / EB2-His (Mus musculus, UniProt P54763).
T1 construct: a dual-tagged EphB2-His-Fc ectodomain protein; mouse EB2-His residues 18-232; purchased R&D Systems (EphB-Fc); Sino Biologicals (EphrinB-His)
The experiment is described as follows: pulldown EB2-His to EphB2-His-Fc. It is filed as binding.

Experiment [2] relates to EphB2 tyrosine kinase, Cos1 cells. The experiment is described as follows: EphB2 kinase activation by pre-clustered EB2-Fc in Cos1 cells, immunoblot. It is filed as cell-based. Particulars: 30 min, listed as A20. How it is done:
To assess if A20 would reduce the ability of EphrinB2 to stimulate activation of the EphB tyrosine kinase domain in live cells, Cos1 cells that express endogenous EphB2 were exposed to pre-clustered EB2-Fc ectodomains in the presence or absence of A20 for 30 min. […] Stimulated cells were fixed on the coverslip and subjected to immunofluorescence (IF) with anti-Fc antibodies to detect ligand protein bound to receptor, which leads to formation of circular Eph-Ephrin tetramers that then cluster into large obvious spots on the cell surface by lateral migration through the plasma membrane and also contain anti-phosphotyrosine signal indicating activation of the receptor's kinase domain.
(In western blotting, separated proteins are transferred to a membrane and probed.)

Experiment [3] deals with EphB2-EphrinB2 tetramer (Homo sapiens, UniProt P29323). The experiment can be described thus: mass photometry. It is filed as binding, mouse EphrinB2. Particulars: 216 kDa without. How it is done: To verify the kinetic studies using the Octet system, mass photometry (MP) that uses optical detection to measure the mass of individual proteins and protein complexes in solution was employed. MP was used to determine the mass of EphB2 and EphrinB2 ectodomain proteins individually or after being combined and allowed to associate into tetramers for a 24 hr period either without or with 10 or 50 μM concentrations of the A20 salt (FIG. 26). For these experiments His-tagged proteins, human hEphB2-His and murine mEB2-His were used. […] During MP experiments EphB2 and EB2 when analyzed alone would each measure as a homodimer, and when the EphB2 and EphrinB2 proteins are combined, the average mass of the protein species shifted to a larger 216 kDa species (FIG. 26C). The size was as expected if two EphB2 and two EphrinB2 molecules complexed together into the stable circular tetramer (130+83=213 kDa). […] It is important to understand that the MP experiments described here are powerful, but also temporally limited because we can really only assess the protein species after interaction homeostasis has been achieved and for this experiment the proteins and A20 were allowed to incubate together for 24 hr before masses were determined.
Sequence of EphB2-EphrinB2 tetramer (P29323 19-543 limits assumed): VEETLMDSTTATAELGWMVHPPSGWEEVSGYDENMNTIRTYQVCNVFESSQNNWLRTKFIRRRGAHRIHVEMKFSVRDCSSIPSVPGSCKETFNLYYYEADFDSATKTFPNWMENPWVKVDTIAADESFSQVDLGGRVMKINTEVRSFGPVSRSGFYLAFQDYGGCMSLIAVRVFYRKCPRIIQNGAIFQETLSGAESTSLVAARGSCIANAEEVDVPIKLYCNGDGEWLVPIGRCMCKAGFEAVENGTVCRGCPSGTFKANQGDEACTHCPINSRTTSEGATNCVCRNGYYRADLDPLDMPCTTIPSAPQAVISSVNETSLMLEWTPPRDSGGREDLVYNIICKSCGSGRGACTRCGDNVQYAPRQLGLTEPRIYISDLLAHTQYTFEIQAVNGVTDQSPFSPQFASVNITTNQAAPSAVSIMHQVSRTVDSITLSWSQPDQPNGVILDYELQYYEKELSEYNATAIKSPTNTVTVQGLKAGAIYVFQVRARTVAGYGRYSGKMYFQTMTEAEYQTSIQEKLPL

The target in experiment [4] is pre-formed EphB2-EphrinB2 tetramer (Mus musculus, UniProt P54763). The experiment is described as follows: Octet competition of pre-existing tetramers, mouse EphB2-EphrinB2. Type of experiment: binding. Particulars: 2, 10, 50 μM. How it is done:
Biophysical studies were conducted to explore if A20 is able to disrupt pre-existing stable tetramers, focusing on interactions of immobilized human EphrinB2 binding to soluble human EphB1 and EphB2, and immobilized mouse EphB2 binding to mouse EphrinB2 (FIGS. 29A-29C). In these experiments, sensor-chip immobilized proteins were first exposed to 50 nM of their soluble target protein for an 800 sec association step and 1,000 sec dissociation step to generate pre-formed stable tetramers, which were then subjected to a 1,000 sec competition step that included either 0, 2, 10, or 50 μM concentrations of A20 salt compound. […] The ability of A20 to disrupt pre-existing tetramers was most pronounced for human EB2-EphB2 and cognate murine EphB2-EB2 experiments and indicated a gradual ongoing dose-dependent decline in tetramers throughout the 1,000 sec competition step (and beyond if allowed) and irrespective of whether the human EphrinB2 or murine EphB2 was the immobilized protein.

For experiment [5], the system named is morphine withdrawal in mice. The experiment can be described thus: naloxone-precipitated morphine withdrawal behaviors. It is filed as in vivo, mouse. Particulars: 30 mg/kg IP, 4×12 hr. How it is done: Eight month old male EphB1^+/+ WT mice EphB1^−/− KO mice from the Henkemeyer mouse colony were injected intraperitoneally (IP) with increasing morphine doses in normal saline every 12 h for 4 consecutive days (day 1:20 mg/kg, day 2:40 mg/kg, day 3:60 mg/kg, day 4:80 mg/kg) and on the fifth day in the morning they were injected with a final 100 mg/kg morphine dose which was staggered by one mouse every 30 minutes. Exactly 3 h after the last morphine injection, each mouse was weighed, and withdrawal was precipitated using naloxone hydrochloride that was subcutaneously injected at 1 mg/kg. Withdrawal signs were then monitored by an examiner who was blinded to animal genotypes for 30 min after naloxone administration to identify the number of jumps, wet dog shakes, and diarrhea events observed in the 30 min period, and % change in weight from before naloxone administration to 30 min post withdrawal. For tremor and ptosis, the presence of tremor and/or a drooping upper eyelid is monitored at the beginning of each 5 min interval during the 30 min monitoring period.
WT CD1 mice was used in one experiment and WT C57BL/6 mice was used in the other. All mice were 4-5-month-old males. In both cases, 30 mg/kg A20 free base dissolved in 6% DMSO/94% sunflower seed oil was administered in 4×12 hr IP dosings to mice that were at an entering dose 6 of a 9×12 hr IP schedule of escalating morphine (2×20, 2×40, 2×60, 2×80, and 1×100 mg/kg). Naloxone was given exactly 3 hr after the last A20/morphine dose and withdrawal behaviors were monitored for 30 min. Both groups of mice were scored for jumping (FIG. 70A) and the C57BL/6 mice were additionally scored at 5 min intervals for diarrhea, tremor, and ptosis (FIG. 70B). […] In summary, A20 tetramerization inhibitor compounds serve to help reduce the adverse effects of opioid use and abuse, and could possibly be used to help wean people off of terribly addictive narcotic drugs.

This is an account of results in patent US20260374739A1, “SMALL MOLECULAR WEIGHT CHEMICAL COMPOUND TO ANTAGONIZE EPH-EPHRIN TETRAMERIZATION AND INHIBIT BIDIRECTIONAL SIGNALING” (THE BOARD OF REGENTS OF THE UNIVERSITY OF TEXAS SYSTEM, priority 2022, published 2026).

“Also recorded” adds a separate entry of the source.

As a reminder, the IC50 is the point on the concentration scale where inhibition reaches its midpoint. Low readings indicate higher potency, high ones lower potency.

T1 sequence (P54763 19-543 limits assumed): as the sequence (P29323 19-543 limits assumed) above, with S104L, S154N, Q520K counted along it
Sequence of pre-formed EphB2-EphrinB2 tetramer (P54763 19-543 limits assumed): as the sequence (P29323 19-543 limits assumed) above, with S104L, S154N, Q520K counted along it

In the case of `Oc1c(Br)cc(CN2CCOCC2)c2cccnc12` [Compound 5, 7-bromo-5-(morpholinomethyl)quinolin-8-ol], in experiment [1], the “pulldown EphB2 binding to EB2-His” value was “strong dose-dependent ability to antagonize EphB2-His-Fc protein binding to EB2-His”. In addition, in experiment [1] (pulldown, EphB2), the IC50 was around 10 µM. The “EphB2 kinase activity” value in experiment [2] is listed as “caused a dose-dependent reduction in EphB2 kinase activity; also recorded: antagonizes EB2 stimulation of EphB2 catalytic activity”. The “average mass of protein species” value in experiment [3] (10 μM A20 salt) was 158 kDa. For the same molecule, in experiment [3] (50 μM A20 salt), the “average mass of protein species” value was 150 kDa. Further, the “competition of pre-formed tetramers” value in experiment [4] was “able to compete away in a dose-dependent manner a significant amount of the stable pre-formed tetramer complexes”. Further, in experiment [5], the “diarrhea and ptosis” value was “did not show signs of diarrhea or ptosis”; the “jumps” value is reported as “significantly fewer jumps”; the tremor reduction was 50%.
